Reference: patent US10040781B2, “Tank-binding kinase inhibitor compounds” (Gilead Sciences, Inc., priority 2014, dated 2018)
pIC50: −log10 of the molar value. Where two headings read alike, the source gives them in different places.

Tests used:
hJAK2 = hJAK2 (Homo sapiens (Human), UniProt O60674); test: hJAK2 LANCE TR-FRET enzymatic assay; assay type: biochemical; settings: read-out: JAK2 IC50
TBK1 = TBK1 (Homo sapiens (Human), UniProt Q9UHD2); test: TBK1 TR-FRET enzymatic assay;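 further: phosphorylation of a biotinylated Ser/Thr peptide by purified full-length recombinant TBK1, read by TR-FRET after 240 min at 25 °C, IC50 is the geometric mean of at least four runs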
TBK1, sequence (Q9UHD2 whole entry): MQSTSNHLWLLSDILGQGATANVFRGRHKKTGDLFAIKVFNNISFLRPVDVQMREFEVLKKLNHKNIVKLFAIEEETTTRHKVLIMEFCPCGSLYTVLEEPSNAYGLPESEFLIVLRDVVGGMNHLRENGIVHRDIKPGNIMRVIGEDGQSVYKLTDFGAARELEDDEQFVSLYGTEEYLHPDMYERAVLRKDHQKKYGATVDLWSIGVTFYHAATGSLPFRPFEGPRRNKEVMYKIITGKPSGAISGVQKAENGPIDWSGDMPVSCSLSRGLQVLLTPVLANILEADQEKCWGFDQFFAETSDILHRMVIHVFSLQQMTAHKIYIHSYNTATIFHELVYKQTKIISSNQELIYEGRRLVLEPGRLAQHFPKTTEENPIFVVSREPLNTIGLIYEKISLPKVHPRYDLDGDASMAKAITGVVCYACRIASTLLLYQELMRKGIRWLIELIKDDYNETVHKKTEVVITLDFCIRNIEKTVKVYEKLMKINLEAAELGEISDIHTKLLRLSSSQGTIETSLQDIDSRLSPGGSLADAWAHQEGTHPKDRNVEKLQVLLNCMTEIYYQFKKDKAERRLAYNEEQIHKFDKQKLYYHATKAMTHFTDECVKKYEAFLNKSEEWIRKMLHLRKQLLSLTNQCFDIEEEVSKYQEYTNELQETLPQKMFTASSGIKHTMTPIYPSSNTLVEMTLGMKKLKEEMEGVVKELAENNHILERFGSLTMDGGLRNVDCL

hJAK2, sequence (O60674 whole entry): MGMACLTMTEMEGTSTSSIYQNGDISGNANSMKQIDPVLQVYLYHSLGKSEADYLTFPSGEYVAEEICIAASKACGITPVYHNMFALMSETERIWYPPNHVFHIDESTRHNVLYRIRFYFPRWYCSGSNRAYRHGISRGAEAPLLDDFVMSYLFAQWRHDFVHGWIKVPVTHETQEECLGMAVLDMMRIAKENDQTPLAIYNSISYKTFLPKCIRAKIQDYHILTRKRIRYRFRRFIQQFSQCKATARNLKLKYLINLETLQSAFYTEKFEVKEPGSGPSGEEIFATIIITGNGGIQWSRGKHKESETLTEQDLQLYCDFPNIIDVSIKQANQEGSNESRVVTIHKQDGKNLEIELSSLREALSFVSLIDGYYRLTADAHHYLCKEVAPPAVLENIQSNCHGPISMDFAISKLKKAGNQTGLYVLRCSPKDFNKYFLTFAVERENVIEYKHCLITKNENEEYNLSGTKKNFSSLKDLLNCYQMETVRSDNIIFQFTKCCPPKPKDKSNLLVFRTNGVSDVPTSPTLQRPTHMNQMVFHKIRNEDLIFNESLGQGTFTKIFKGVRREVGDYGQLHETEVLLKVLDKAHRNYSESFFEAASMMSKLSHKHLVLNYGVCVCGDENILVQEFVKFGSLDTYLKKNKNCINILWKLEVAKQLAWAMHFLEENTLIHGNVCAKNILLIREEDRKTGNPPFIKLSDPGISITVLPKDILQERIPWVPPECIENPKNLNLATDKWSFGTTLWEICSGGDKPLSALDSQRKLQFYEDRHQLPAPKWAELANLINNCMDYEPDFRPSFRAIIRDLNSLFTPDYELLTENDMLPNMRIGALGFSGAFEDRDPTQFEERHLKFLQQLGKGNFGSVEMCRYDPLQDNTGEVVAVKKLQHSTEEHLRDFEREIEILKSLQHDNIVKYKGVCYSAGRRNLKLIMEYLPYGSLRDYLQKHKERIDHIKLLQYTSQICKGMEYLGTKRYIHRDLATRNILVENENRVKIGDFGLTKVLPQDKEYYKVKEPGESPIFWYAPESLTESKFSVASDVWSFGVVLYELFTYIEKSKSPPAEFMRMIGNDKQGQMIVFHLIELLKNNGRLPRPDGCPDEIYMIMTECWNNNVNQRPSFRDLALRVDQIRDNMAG

pIC50 (hJAK2) | pIC50 (TBK1) | Structure (SMILES) | pIC50 (TBK1; TBK1 IC50)
6.41 | 8.52 | N#Cc1cc(-c2ncnc(Nc3ccc(N4CCN(C5COC5)CC4)cc3)n2)ccc1O[C@@H]1CCN(C(=O)CO)C1 [Example 30, (R)-2-((1-(2-hydroxyacetyl)pyrrolidin-3-yl)oxy)-5-(4-((4-(4-(oxetan-3-yl)piperazin-1-yl)phenyl)amino)-1,3,5-triazin-2-yl)benzonitrile] | 
6.35 | 8.05 | N#CCC(=O)N1CCC(Oc2ccc(-c3ncnc(Nc4ccc(N5CCN(C6COC6)CC5)cc4)n3)cc2C#N)CC1 [Example 44, 2-((1-(2-cyanoacetyl)piperidin-4-yl)oxy)-5-(4-((4-(4-(oxetan-3-yl)piperazin-1-yl)phenyl)amino)-1,3,5-triazin-2-yl)benzonitrile] | 
< 6.00 | 8.30 | CS(=O)(=O)c1ccc(Nc2ncnc(-c3ccc(OC4CCOCC4)c(C#N)c3)n2)cc1 [Example 50, 5-(4-((4-(methylsulfonyl)phenyl)amino)-1,3,5-triazin-2-yl)-2-((tetrahydro-2H-pyran-4-yl)oxy)benzonitrile] | 
6.54 | 7.57 | N#Cc1cc(-c2ncnc(Nc3cccc(N4CCOCC4)c3)n2)ccc1O[C@@H]1CCN(C(=O)CO)C1 [Example 81, (R)-2-((1-(2-hydroxyacetyl)pyrrolidin-3-yl)oxy)-5-(4-((3-morpholinophenyl)amino)-1,3,5-triazin-2-yl)benzonitrile] | 
6.17 | 7.89 | N#Cc1cc(-c2ncnc(Nc3ccc(C(N)=O)cc3)n2)ccc1O[C@@H]1CCN(C(=O)CO)C1 [Example 85, (R)-4-((4-(3-cyano-4-((1-(2-hydroxyacetyl)pyrrolidin-3-yl)oxy)phenyl)-1,3,5-triazin-2-yl)amino)benzamide] | 
7.28 | 8.70 | N#Cc1cc(-c2ncnc(Nc3ccc(N4CCN(C5COC5)CC4)cc3)n2)ccc1O[C@H]1CCN(C(=O)c2nnc[nH]2)CC1(F)F [Example 166, (S)-2-((3,3-difluoro-1-(4H-1,2,4-triazole-3-carbonyl)piperidin-4-yl)oxy)-5-(4-((4-(4-(oxetan-3-yl)piperazin-1-yl)phenyl)amino)-1,3,5-triazin-2-yl)benzonitrile] | 
6.72 | 9.00 | N#Cc1cc(-c2ncnc(Nc3ccc(N4CCO[C@@H](CO)C4)cc3)n2)ccc1O[C@H]1CCN(C(=O)CO)C[C@H]1F [Example 229, 2-(((3R,4S)-3-fluoro-1-(2-hydroxyacetyl)piperidin-4-yl)oxy)-5-(4-((4-((R)-2-(hydroxymethyl)morpholino)phenyl)amino)-1,3,5-triazin-2-yl)benzonitrile] | 
6.64 | 7.77 | C[C@H](O)C(=O)N1CC[C@@H](Oc2ccc(-c3ncnc(Nc4ccc(N5CCN(C6COC6)[C@H](C)C5)cc4)n3)cc2C#N)C(F)(F)C1 [Example 245, 2-(((R)-3,3-difluoro-1-((S)-2-hydroxypropanoyl)piperidin-4-yl)oxy)-5-(4-((4-((R)-3-methyl-4-(oxetan-3-yl)piperazin-1-yl)phenyl)amino)-1,3,5-triazin-2-yl)benzonitrile] | 
7.38 | 8.70 | C[C@H]1CN(C2COC2)CCN1c1ccc(Nc2ncnc(-c3ccc(O[C@H]4CCN(C(=O)c5nnc[nH]5)CC4(F)F)c(C#N)c3)n2)cc1 [Example 260, 2-(((S)-3,3-difluoro-1-(4H-1,2,4-triazole-3-carbonyl)piperidin-4-yl)oxy)-5-(4-((4-((S)-2-methyl-4-(oxetan-3-yl)piperazin-1-yl)phenyl)amino)-1,3,5-triazin-2-yl)benzonitrile] | 
7.34 | 9.00 | C[C@H]1CN(c2ccc(Nc3ncnc(-c4ccc(O[C@H]5CCN(C(=O)CO)CC5(F)F)c(C#N)c4)n3)cc2)CCN1C1COC1 [Example 261, 2-(((S)-3,3-difluoro-1-(2-hydroxyacetyl)piperidin-4-yl)oxy)-5-(4-((4-((S)-3-methyl-4-(oxetan-3-yl)piperazin-1-yl)phenyl)amino)-1,3,5-triazin-2-yl)benzonitrile] | 
6.51 | 8.52 | CC(=O)N1CC[C@H](Oc2ccc(-c3ncnc(Nc4ccc(C5CCNCC5)cc4)n3)cc2C#N)C(F)(F)C1 [Example 301, (S)-2-((1-acetyl-3,3-difluoropiperidin-4-yl)oxy)-5-(4-((4-(piperidin-4-yl)phenyl)amino)-1,3,5-triazin-2-yl)benzonitrile] | 
6.76 | 8.70 | CC(=O)N1CC[C@H](Oc2ccc(-c3ncnc(Nc4ccc(C5CCN(C)CC5)cc4)n3)cc2C#N)C(F)(F)C1 [Example 302, (S)-2-((1-acetyl-3,3-difluoropiperidin-4-yl)oxy)-5-(4-((4-(1-methylpiperidin-4-yl)phenyl)amino)-1,3,5-triazin-2-yl)benzonitrile] | 
6.54 | 9.00 | Cc1cc(Nc2ncnc(-c3ccc(O[C@H]4CCN(C=O)CC4(F)F)c(C#N)c3)n2)ccc1C1CCNCC1 [Example 303, (S)-2-((3,3-difluoro-1-formylpiperidin-4-yl)oxy)-5-(4-((3-methyl-4-(piperidin-4-yl)phenyl)amino)-1,3,5-triazin-2-yl)benzonitrile] | 
≤ 6.00 | 8.70 | Cc1cc(Nc2ncnc(-c3ccc(O[C@H]4CCN(C=O)CC4(F)F)c(C#N)c3)n2)ccc1C1CCN(C)CC1 [Example 304, (S)-2-((3,3-difluoro-1-formylpiperidin-4-yl)oxy)-5-(4-((3-methyl-4-(1-methylpiperidin-4-yl)phenyl)amino)-1,3,5-triazin-2-yl)benzonitrile] | 
6.53 | 8.70 | N#Cc1cc(-c2ncnc(Nc3ccc(C4CCN(C5COC5)CC4)cc3)n2)ccc1O[C@H]1CCN(C(=O)CO)C[C@H]1F [Example 305, 2-(((3R,4S)-3-fluoro-1-(2-hydroxyacetyl)piperidin-4-yl)oxy)-5-(4-((4-(1-(oxetan-3-yl)piperidin-4-yl)phenyl)amino)-1,3,5-triazin-2-yl)benzonitrile] | 
≤ 6.00 | 8.70 | N#Cc1cc(-c2ncnc(Nc3ccc(C4CCN(C5COC5)CC4)cc3)n2)ccc1O[C@H]1CCN(C(=O)c2ccn[nH]2)C[C@H]1F [Example 318, 2-(((3R,4S)-3-fluoro-1-(1H-pyrazole-5-carbonyl)piperidin-4-yl)oxy)-5-(4-((4-(1-(oxetan-3-yl)piperidin-4-yl)phenyl)amino)-1,3,5-triazin-2-yl)benzonitrile] | 
7.55 | 8.70 | COc1cc(Nc2ncnc(-c3ccc(O[C@H]4CCN(C(=O)CO)C[C@H]4F)c(C#N)c3)n2)ccc1N1CCC(N2CCOCC2)CC1 [Example 325, 2-(((3R,4S)-3-fluoro-1-(2-hydroxyacetyl)piperidin-4-yl)oxy)-5-(4-((3-methoxy-4-(4-morpholinopiperidin-1-yl)phenyl)amino)-1,3,5-triazin-2-yl)benzonitrile] | 
6.34 | 8.52 | N#CCC(=O)N1CC[C@H](Oc2ccc(-c3ncnc(Nc4ccc(N5CCN(C6COC6)CC5)c(F)c4)n3)cc2C#N)[C@H](F)C1 [Example 404, 2-(((3R,4S)-1-(2-cyanoacetyl)-3-fluoropiperidin-4-yl)oxy)-5-(4-((3-fluoro-4-(4-(oxetan-3-yl)piperazin-1-yl)phenyl)amino)-1,3,5-triazin-2-yl)benzonitrile] | 
7.11 | 8.52 | Cc1nnc(C(=O)N2CC[C@H](Oc3ccc(-c4ncnc(Nc5ccc(C6CCN(C)CC6)c(C)c5)n4)cc3C#N)[C@H](F)C2)[nH]1 [Example 490, 2-(((3R,4S)-3-fluoro-1-(5-methyl-4H-1,2,4-triazole-3-carbonyl)piperidin-4-yl)oxy)-5-(4-((3-methyl-4-(1-methylpiperidin-4-yl)phenyl)amino)-1,3,5-triazin-2-yl)benzonitrile] | 
6.45 | 9.00 | C[C@H](O)C(=O)N1CC[C@H](Oc2ccc(-c3ncnc(Nc4ccc(N5CCNCC5)cc4)n3)cc2C#N)[C@H](F)C1 [Example 497, 2-(((3R,4S)-3-fluoro-1-((S)-2-hydroxypropanoyl)piperidin-4-yl)oxy)-5-(4-((4-(piperazin-1-yl)phenyl)amino)-1,3,5-triazin-2-yl)benzonitrile] | 
6.41 | 8.70 | C[C@H](O)C(=O)N1CC[C@H](Oc2ccc(-c3ncnc(Nc4ccc(N5CCN(C)CC5)cc4)n3)cc2C#N)[C@H](F)C1 [Example 498, 2-(((3R,4S)-3-fluoro-1-((S)-2-hydroxypropanoyl)piperidin-4-yl)oxy)-5-(4-((4-(4-methylpiperazin-1-yl)phenyl)amino)-1,3,5-triazin-2-yl)benzonitrile] | 
6.74 | 8.70 | C[C@H]1CN(C)CCN1c1ccc(Nc2ncnc(-c3ccc(O[C@H]4CCN(C(=O)CO)C[C@H]4F)c(C#N)c3)n2)cc1 [Example 500, 5-(4-((4-((S)-2,4-dimethylpiperazin-1-yl)phenyl)amino)-1,3,5-triazin-2-yl)-2-(((3R,4S)-3-fluoro-1-(2-hydroxyacetyl)piperidin-4-yl)oxy)benzonitrile] | 
7.32 |  | COc1cc(Nc2ncnc(-c3ccc(O[C@H]4CCN(C(=O)[C@H](O)CO)C[C@H]4F)c(C#N)c3)n2)ccc1N1CCN(C2COC2)CC1 [Example 579, 2-(((3R,4S)-1-((R)-2,3-dihydroxypropanoyl)-3-fluoropiperidin-4-yl)oxy)-5-(4-((3-methoxy-4-(4-(oxetan-3-yl)piperazin-1-yl)phenyl)amino)-1,3,5-triazin-2-yl)benzonitrile] | 
6.44 |  | C[C@H](O)C(=O)N1CC[C@H](Oc2ccc(-c3ncnc(Nc4ccc(N5CCN6CCOC[C@H]6C5)cc4)n3)cc2C#N)[C@H](F)C1 [Example 619, 2-(((3R,4S)-3-fluoro-1-((S)-2-hydroxypropanoyl)piperidin-4-yl)oxy)-5-(4-((4-((R)-hexahydropyrazino[2,1-c][1,4]oxazin-8(1H)-yl)phenyl)amino)-1,3,5-triazin-2-yl)benzonitrile] | 

Structure (SMILES) | pIC50 (hJAK2) | pIC50 (TBK1) | pIC50 (TBK1; TBK1 IC50)
C[C@H](O)C(=O)N1CC[C@H](Oc2ccc(-c3ncnc(Nc4ccc(N5C6COCC5C6)cc4)n3)cc2C#N)[C@H](F)C1 [Example 366, 5-(4-((4-(3-oxa-6-azabicyclo[3.1.1]heptan-6-yl)phenyl)amino)-1,3,5-triazin-2-yl)-2-(((3R,4S)-3-fluoro-1-((S)-2-hydroxypropanoyl)piperidin-4-yl)oxy)benzonitrile] | 6.27 |  | 8.52
